Laboratory results from PubChem BioAssay (NCI).
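Five compound concentrations were applied to cells in 96-well plates for 48 hours; endpoints were derived by simple linear interpolation of the resulting dose-response curve. The concentration for 50% growth inhibition is given as GI50. Definition used: TGI = concentration required for complete inhibition of growth.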

Key:
Test in all cases: inhibition of tumour cell growth, NCI panel, 48 h
[1] = system: M19-MEL melanoma
[2] = system: DMS 114 small cell lung
[3] = system: KM20L2 colon
[4] = system: LXFL 529 NSCLC
[5] = system: HOP-18 NSCLC
[6] = system: MDA-MB-435
[7] = system: MDA-N
[8] = system: T-47D breast
[9] = system: RXF-631 renal

SMILES	TGI [1] [µM]	TGI [2] [µM]	TGI [3] [µM]	TGI [4] [µM]	TGI [5] [µM]	TGI [6] [µM]	TGI [8] [µM]	further results
CN1c2ccccc2N(C(=O)c2ccc([N+](=O)[O-])cc2)C(CC(=O)O)c2cccn21 (stereo unspecified)	> 100	> 100	> 100	> 100				
Cc1cc(NCCCCCCCCNc2cc(C)nc3cc(N)ccc23)c2ccc(N)cc2n1	45.3	30.8	48.8	45.2				
O=C(/C=C/c1cc(Cl)cc(Cl)c1O)c1cccc(O)c1	68.7	> 100	> 100	> 100	> 100			
CC1=CC(=O)C2=C(C)CCC3C(C)C(=O)OC3C12 (stereo unspecified)						> 100	> 100	TGI [7]: > 100 µM
CC(C)C1=CC(=O)C(C)(C2C(O)CC3(C)C4CC=C5C(CCC(OC6OC(CO)C(O)C(O)C6OC6OC(C)C(O)C(O)C6O)C5(C)C)C4(C)C(=O)CC23C)O1 (stereo unspecified)						> 100	> 100	TGI [7]: > 100 µM
CCCCCN(CCCCC)C(=O)[C@@H](CCC(=O)O)NC(=O)c1cc2ccccc2[nH]1	40.9	> 100	> 100	> 100				
Cc1cn(C2CC(O)C(COC(=O)c3ccccc3)O2)c(=O)[nH]c1=O (stereo unspecified)	> 100		> 100	> 100	> 100			TGI [9]: > 100 µM
Cc1c(Cl)cccc1NC(=O)C(=O)C(C(=O)c1ccccc1-c1ccccc1)C1OC(=O)c2ccccc21 (stereo unspecified)	34.8	43.5	51.4	27.9				TGI [9]: 71.6 µM
Nc1ncnc2c1ncn2[C@]1(CO)C=C(CO)C(O)C1O (stereo partly specified)		> 100	> 100	> 100	> 100			TGI [9]: > 100 µM
COC(=O)C1CCc2c1c(=O)n1c([nH]c3ccccc31)c2C#N (stereo unspecified)	> 100	> 100	> 100	> 100	> 100			
CN(CCN1C(=O)c2cc([N+](=O)[O-])cc3cc([N+](=O)[O-])cc(c23)C1=O)CCN1C(=O)c2cc([N+](=O)[O-])cc3cc([N+](=O)[O-])cc(c23)C1=O	4.4	46.9	> 33.5	20.1	> 100			
O=C(N/C(=C\c1ccc(Cl)cc1)c1nc2ccccc2[nH]1)c1ccccc1	34.7		30.8	38.6	50.3			
COC(=O)CCC(NC(=S)N/N=C(\C)c1cnc2ccccc2n1)C(=O)OC (stereo unspecified)			46	> 100	> 100			TGI [9]: > 100 µM
COc1ccc(C2=C(Cl)c3cc(OC)c(OC)cc3C2OC)cc1OC (stereo unspecified)	> 100	> 100	> 100	> 100	> 100			
Cn1c2c(c3ccccc31)CCN(CCCCN1CCCCC1)C2=O	> 100		> 100	> 100	> 100			TGI [9]: > 100 µM
CC(=O)OCC1OC(n2cc(F)c(=O)[nH]c2=O)C(NC(=O)N(CCCl)N=O)C(OC(C)=O)C1OC(C)=O (stereo unspecified)	> 100	> 100	> 100	> 100	> 100			
COc1ccc(NC(=O)C(=O)c2c(O)c3ccc(O)cc3oc2=O)c([N+](=O)[O-])c1	> 100	> 100	> 100	> 100				TGI [9]: > 100 µM
CCC(C)CCOC(=O)c1ccc(N=Cc2ccc(C=Nc3ccc(C(=O)OCCC(C)CC)cc3)cc2)cc1 (stereo unspecified)		> 100	> 100	> 100	> 100			
CN1C(=O)CCC1(O)C1C=CC=CC1 (stereo unspecified)	> 100	> 100	> 100	> 100				TGI [9]: > 100 µM
N#Cc1c(-c2ccc(Cl)c(Cl)c2)c(-c2ccc(Cl)c(Cl)c2)nn(CC(=O)O)c1=O	> 100		56.8	> 100	> 100			TGI [9]: > 100 µM
O=C1NC(Cc2ccc(O)cc2)C(=O)N2CCCC12 (stereo unspecified)	> 100	> 100	> 100	> 100	> 100			TGI [9]: > 100 µM
CC1=Nc2ccccc2S/C1=C(/C)NNS(=O)(=O)c1ccc(C)cc1	> 100	> 100	> 100	> 100	> 100			TGI [9]: > 100 µM
COc1cc2c(cc1OC)[C@@H](Nc1ccc(C#N)cc1)C1COC(=O)[C@@H]1C2c1cc(OC)c(O)c(OC)c1 (stereo partly specified)	95		95	95	95	> 100	> 100	TGI [7]: > 100 µM
Cc1ccc(S(=O)(=O)OCCn2cnc3nc(NC(=O)c4ccccc4)[nH]c(=O)c32)cc1	> 100	> 100	> 100	> 100	> 100			
CN(C)C=Nc1ccn(CCO)c(=O)n1	> 100	> 100	> 100	> 100	> 100			TGI [9]: > 100 µM

SMILES	TGI [1] [µM]	TGI [2] [µM]	TGI [3] [µM]	TGI [4] [µM]	TGI [5] [µM]	TGI [6] [µM]	TGI [8] [µM]	further results
N#Cc1cccc2c1Nc1ccccc1S2	> 100	> 100	> 100		> 100			
C[C@@H](NC1CCCC[C@H]1O)c1ccccc1 (stereo partly specified)	> 100		> 100		> 100			
COc1ccc(C/C(=N/O)C(=O)NCCc2cc(Br)c(OCCCN(C)C)c(Br)c2)cc1Br	33.8	36.5	40.6	29.7	0.0986			
COP(=O)(OC)C(=O)N1N(c2ccc([N+](=O)[O-])cc2)C(=O)C(C)NC1(NNc1ccc([N+](=O)[O-])cc1)P(=O)(OC)OC (stereo unspecified)	> 100	> 100	> 100	> 100				
N.N.N.N.N.[Co+3].[I-].[N-]=[N+]=[N-]			> 100	> 100				GI50 [3]: > 100 µM; GI50 [4]: > 100 µM
O=C1C2Nc3ccccc3SC2C(=O)N1c1ccc(Br)cc1 (stereo unspecified)	> 100	46.4	> 100	82.1				
COC(=O)c1n[nH]c(C)c1N=NN(C)CCC#N						> 100	93	TGI [7]: > 100 µM
c1cc(NNc2cccc(-c3nn[nH]n3)c2)cc(-c2nn[nH]n2)c1						> 100	> 100	TGI [7]: > 100 µM
CC(C)OP(=O)(OC(C)C)/C(Cl)=N/Nc1ccc([N+](=O)[O-])cc1	> 100	> 100	> 100	> 100				
O=C(NCCCCCCCCCCCCNC(=O)c1cccc2ccccc12)c1cccc2ccccc12	> 100	> 100	> 100	> 100	> 100			TGI [9]: > 100 µM
CCN(CC)c1ccc(/C=N/NC(=O)CSc2nc3ccccc3c(=O)n2CCc2ccc(S(N)(=O)=O)cc2)c(O)c1						> 100	> 100	GI50 [6]: 3.89 µM; GI50 [8]: 1.01 µM
CC(C)c1[nH]nc(C(N)=O)c1N=NN(C)C						> 100	> 100	TGI [7]: > 100 µM
CCN(Cc1ccc(C)cc1)c1ccc(CO)c(Cl)c1						28.5	0.623	GI50 [6]: 13.7 µM; GI50 [8]: 0.149 µM
c1ccc2sc(SCCSc3nc4ccccc4s3)nc2c1						> 100	> 100	TGI [7]: > 100 µM
NNC(=S)N/N=C(\C(=O)Nc1cccc(O)c1)C1C(=O)NC(=S)NC1=O						> 100	> 100	
C/C(=C1/N=C(c2cc([N+](=O)[O-])ccc2Cl)N(c2cccc(C)c2)C1=O)c1cc2ccccc2oc1=O	> 100	> 100	> 100	> 100	> 100			TGI [9]: > 100 µM
CC(C)(Br)C(=O)N1CCN(C(c2ccccc2)c2ccccc2)CC1						> 100		TGI [7]: > 100 µM
COc1ccc2c(c1OC)C[C@@H]1c3c(cc4c(c3-2)OCO4)CCN1C						> 100	90.2	TGI [7]: > 100 µM
CC(=O)O[C@H]1C(=O)[C@@]2(C)C(C(OC(=O)c3ccccc3)[C@]3(O)C[C@H](OC(=O)C(OC(=O)CCCC(=O)NCCCN(C)C)C(NC(=O)c4ccccc4)c4ccccc4)C(C)=C1C3(C)C)C1(OC(C)=O)COC1C[C@@H]2O (stereo partly specified)	17.3	< 0.01	< 0.01	20.9	35		47.8	TGI [9]: > 100 µM; TGI [7]: < 0.01 µM
COc1ccc(/C=C(/C#N)C(N)=O)c(OC)c1						48.5	> 100	TGI [7]: 52.6 µM
COc1cc(Nc2nc3cc(N)cc(N)c3nc2-c2ccccc2)cc(OC)c1OC						24.4	27.3	GI50 [6]: 7.35 µM; GI50 [7]: 10.5 µM; TGI [7]: 31.3 µM; GI50 [8]: 6.07 µM
C=C1CC[C@@H]2[C@](C)(COC(C)=O)[C@H](OC(C)=O)CC[C@@]2(C)[C@@H]1CC(Nc1ccc(S(=O)(=O)NC(C)=O)cc1)C1=CCOC1=O (stereo partly specified)						10.6	12	GI50 [6]: 2.79 µM; GI50 [8]: 2.46 µM
COc1ccc(/C=C/C(=O)c2cc(OC)c(OC)c(OC)c2)cc1OCC(=O)Nc1nc2ccc(OC(F)(F)F)cc2s1						1.08	10.9	GI50 [6]: 0.3 µM; GI50 [8]: 3.08 µM
Cc1cc2nc3c4cc(O)ccc4n(CCN(C)C)c3nc2cc1C						2.36	> 100	GI50 [6]: 1.07 µM; GI50 [8]: 1.28 µM
COC(=O)CC(NC(=O)OCc1ccccc1)C(C(C)=O)C(=O)OCc1ccccc1 (stereo unspecified)	> 31.6	> 31.6	> 31.6	> 31.6	> 31.6			
